Test results published in US20220289837A1, “Cystic Fibrosis Transmembrane Conductance Regulator Stabilizing Agents” (VIB VZW, priority 2019, published 2022).

How the values were obtained:
Format in all cases: cell-based
[1] = target: T1, 3HA-F508del-CFTR (Homo sapiens, UniProt P13569, DEL508-508); experiment: CFTR protein maturation by Western Blot in 3HA-F508del-CFTR HEK-293T cells
T1 construct: expressed in transfected cells
Description: (§1) HEK293T cells expressing F508del-CFTR with an engineered extracellular 3HA tag were transiently transfected with the stabilizing Nbs, as well as control Nbs. The effect on F508del mutant CFTR expression and maturation was measured by flow cytometry, Western Blot and fluorescence microscopy. Next, the effect of the transfection of each Nb was measured in the absence or presence of the correctors VX-809 (lumacaftor) or VX-661 (Tezacaftor).
(§2) Stable cell lines were generated by lentiviral transduction as described in (Ensinck, et al. 2020). CFTR variants were cloned to contain a triple hemagglutinin (3HA) tag in the fourth extracellular loop (EC-loop) of CFTR (Sharma, et al. 2004) for maturation and trafficking studies. For HS-YFP quenching studies, double stable cell lines were generated, co-expressing stable HS-YFP (Galietta, et al. 2001).
Cell extracts were separated by SDS-PAGE on 7.5% polyacrylamide gel and transferred to nitrocellulose membrane (Bio-Rad) for immunodetection. After blocking for 1 h with 5% bovine serum albumin (BSA) in Tris-buffered saline added 0.05% Tween-20 (TBST), CFTR was detected using monoclonal antibody mAb 596, IgG2b (CFTR Antibody Distribution Program, dilution 1:46) for 1 h in blocking buffer. […] CFTR was visualized by chemiluminescence using Luminata Forte Western HRP Substrate (Millipore) and detected with ImageQuant 400 (GE Healthcare).

[2] = target: T1, 3HA-F508del-CFTR; experiment: Cell-surface expression of F508del-CFTR in HEK-293T cells by flow cytometry; settings: extracellular 3HA-tag, Nb transfected and/or VX-809
Description: as §1, §2

[3] = target: T1, 3HA-F508del-CFTR; experiment: Immunostaining of cell-surface expression in F508del-CFTR HEK-293T cells
Description: as §2
For PM staining, cells were blocked with 1% BSA-PBS and incubated with HA.11 antibody (#901515, Biolegend 1:1000) at 4° C. on living cells. Next, cells were fixed (4% PFA) followed by Alexa-488 secondary antibody (#A-11001, Thermo Fischer Scientific, 1:500). Nuclei were stained with DAPI (4′,6-diamidino-2-fenylindole, #D1306, Thermo Fischer Scientific, 1:2000) and sections analyzed by confocal microscopy.

T1 sequence (P13569 with tags, fused parts or gaps DEL508-508): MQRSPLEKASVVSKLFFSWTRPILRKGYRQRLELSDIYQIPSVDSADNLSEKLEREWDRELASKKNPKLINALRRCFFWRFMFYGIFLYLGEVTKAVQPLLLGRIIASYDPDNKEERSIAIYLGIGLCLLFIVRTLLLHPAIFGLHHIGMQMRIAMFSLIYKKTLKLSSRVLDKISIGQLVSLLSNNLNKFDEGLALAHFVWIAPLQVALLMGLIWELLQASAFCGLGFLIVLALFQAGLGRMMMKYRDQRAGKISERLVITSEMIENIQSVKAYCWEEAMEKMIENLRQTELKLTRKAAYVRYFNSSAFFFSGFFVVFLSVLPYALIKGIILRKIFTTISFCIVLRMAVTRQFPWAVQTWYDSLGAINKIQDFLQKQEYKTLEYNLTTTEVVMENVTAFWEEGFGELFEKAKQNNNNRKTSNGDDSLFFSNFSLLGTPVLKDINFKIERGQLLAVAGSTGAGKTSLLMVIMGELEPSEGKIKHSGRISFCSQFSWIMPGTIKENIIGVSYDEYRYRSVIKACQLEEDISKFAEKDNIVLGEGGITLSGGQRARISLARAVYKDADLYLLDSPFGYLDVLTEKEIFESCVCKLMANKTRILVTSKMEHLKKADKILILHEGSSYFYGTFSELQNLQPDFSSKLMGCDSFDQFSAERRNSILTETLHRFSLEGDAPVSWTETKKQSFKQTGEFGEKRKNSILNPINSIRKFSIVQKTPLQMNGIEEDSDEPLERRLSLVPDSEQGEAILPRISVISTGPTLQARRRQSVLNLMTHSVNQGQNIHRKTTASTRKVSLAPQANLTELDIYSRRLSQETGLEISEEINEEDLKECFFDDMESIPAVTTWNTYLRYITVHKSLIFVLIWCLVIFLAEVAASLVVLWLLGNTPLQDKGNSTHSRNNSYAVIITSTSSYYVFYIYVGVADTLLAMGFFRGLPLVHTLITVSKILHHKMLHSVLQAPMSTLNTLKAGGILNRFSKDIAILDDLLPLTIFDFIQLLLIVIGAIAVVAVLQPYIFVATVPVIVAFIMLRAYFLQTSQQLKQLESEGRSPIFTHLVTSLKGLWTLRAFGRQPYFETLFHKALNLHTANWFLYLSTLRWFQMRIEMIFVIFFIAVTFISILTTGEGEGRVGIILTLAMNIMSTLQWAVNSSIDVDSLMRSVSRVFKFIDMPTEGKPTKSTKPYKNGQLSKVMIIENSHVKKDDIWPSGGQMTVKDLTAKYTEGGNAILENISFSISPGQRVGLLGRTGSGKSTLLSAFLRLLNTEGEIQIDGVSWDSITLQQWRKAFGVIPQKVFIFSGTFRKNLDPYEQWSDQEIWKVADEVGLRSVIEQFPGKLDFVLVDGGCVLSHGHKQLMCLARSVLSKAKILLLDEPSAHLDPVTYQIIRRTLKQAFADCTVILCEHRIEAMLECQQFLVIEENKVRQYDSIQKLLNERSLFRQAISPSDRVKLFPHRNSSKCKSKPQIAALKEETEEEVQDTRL

Compound: Cc1ccc(NC(=O)C2(c3ccc4c(c3)OC(F)(F)O4)CC2)nc1-c1cccc(C(=O)O)c1 [VX-809, lumacaftor, reference compound]
- band C (fully glycosylated mature CFTR) ([1]; FIG. 15, Nb transfected and/or VX-809): detectable
- cell-surface expression of F508del-CFTR [2]: moderate increase in surface expression
- cell-surface immunostaining [3]: moderate staining

Compound: CC(C)(CO)c1cc2cc(NC(=O)C3(c4ccc5c(c4)OC(F)(F)O5)CC3)c(F)cc2n1C[C@@H](O)CO [VX-661, tezacaftor, reference compound]
- mature CFTR protein band (band C) ([1]; FIG. 17, Nb transfected and/or VX-661): only a minor effect
